Here are results for 21 compounds from patent US9120805B2, “Substituted pyrrolo[1,2-A]pyrazin-1-ones and pyrazolo[1,5-A]pyrazin-4-ones as inhibitors of tankyrase and poly(ADP-ribose)polymerase activity” (Merck Patent GmbH, priority 2012, dated 2015).

Each structure is given as a SMILES string. Structures can show the parent of a compound that is named as a salt.

Experiment [1] deals with T1, GST-tagged Tankyrase-1 (1023-1327 aa) (Homo sapiens, UniProt O95271).
T1 construct: GST-tagged Tankyrase-1 (1023-1327 aa)
The experiment is described as follows: Tankyrase 1 autoparsylation assay (HTRF enzyme assay). The experiment is classed as biochemical. The procedure:
(§1) Biochemical Activity Testing of Tankyrase 1 and 2: Autoparsylation Assay
(§2) The autoparsylation assay is run in two steps: the enzymatic reaction in which GST-tagged Tankyrase-1, resp Tankyrase-2 transferred biotinylated ADP-ribose to itself from biotinylated NAD as co-substrate and the detection reaction where a time resolved FRET between cryptate labelled anti-GST bound to the GST tag of the enzyme and Xlent® labelled-streptavidin bound the biotin-parsylation residue is analysed. The autoparsylation activity was detectable directly via the increase in HTRF signal.
(§3) The autoparsylation assay is performed as 384-well HTRF® (Cisbio, Codolet, France) assay format in Greiner low volume nb 384-well microtiter plates and is used for high throughput screen. 250 nM GST-tagged Tankyrase-1 (1023-1327 aa), respectively about 250 nM GST-tagged Tankyrase-2 (873-1166 aa) and 5 μM bio-NAD (Biolog, Life science Inst., Bremen, Germany) as co-substrate are incubated in a total volume of 5 μl (50 mM HEPES, 4 mM Mg-chloride, 0.05% Pluronic F-68, 1.4 mM DTT, 0.5% DMSO, pH 7.7) in the absence or presence of the test compound (10 dilution concentrations) for 90 min at 30° C. The reaction is stopped by the addition of 1 μl 50 mM EDTA solution. 2 μl of the detection solution (1.6 μM SA-Xlent® (Cisbio, Codolet, France), 7.4 nM Anti-GST-K® (Eu-labelled anti-GST, Cisbio, Codolet, France) in 50 mM HEPES, 800 mM KF, 0.1% BSA, 20 mM EDTA, 0.1% CHAPS, pH 7.0) are added. After 1 h incubation at room temperature the HTRF is measured with an Envision multimode reader (Perkin Elmer LAS Germany GmbH) at excitation wavelength 340 nm (laser mode) and emission wavelengths 615 nm and 665 nm. The ratio of the emission signals is determined. The full value used is the inhibitor-free reaction. The pharmacological zero value used is XAV-939 (Tocris) in a final concentration of 5 μM. The inhibitory values (IC50) are determined using either the program Symyx Assay Explorer® or Condosseo® from GeneData.
On the technique in general: TR-FRET usually uses a lanthanide donor and a delayed reading to cut background.

For experiment [2], the target named is T2, GST-tagged Tankyrase-2 (873-1166 aa) (Homo sapiens, UniProt Q9H2K2).
T2 construct: GST-tagged Tankyrase-2 (873-1166 aa)
The experiment can be described thus: Tankyrase 2 autoparsylation assay (HTRF enzyme assay). In kind it is biochemical. The protocol:
as §1, §2, §3

Another experiment deals with tankyrase 1/2. The experiment can be described thus: Cellular inhibition of Tankyrase: increase of Axin2 level in DLD1 cells (Luminex). The experiment is classed as cell-based. Particulars: 24 hours, read-out: EC50 tankyrase 1/2 (cell assay). The procedure: Measurement of Cellular Inhibition of Tankyrase
Since Tankyrases have been described to modulate cellular level of Axin2 (Huang et al., 2009; Nature) the increase of Axin2 level is used as read-out for determination of cellular inhibition of Tankyrases in a Luminex based assay.
Cells of the colon carcinoma cell line DLD1 are plated in 96 well plates with 1.5×10^4 cells per well. Next day, cells are treated with a serial dilution of test compound in seven steps as triplicates with a final DMSO concentration of 0.3%. After 24 hours, cells are lysed in lysis buffer (20 mM Tris/HCl pH 8.0, 150 mM NaCl, 1% NP40, 10% Glycerol) and lysates are cleared by centrifugation through a 96 well filter plate (0.65 μm). Axin2 protein is isolated from cell lysates by incubation with a monoclonal anti-Axin2 antibody (R&D Systems #MAB6078) that is bound to fluorescent carboxybeads. Then, bound Axin2 is specifically detected with a polyclonal anti-Axin2 antibody (Cell Signaling #2151) and an appropriate PE-fluorescent secondary antibody. The amount of isolated Axin2 protein is determined in a Luminex^200 machine (Luminex Corporation) according to the manufacturer's instruction by counting 100 events per well. Inhibition of Tankyrase by test compounds results in higher levels of Axin2 which directly correlates with an increase of detectable fluorescence. As controls cells are treated with solvent alone (neutral control) and with a Tankyrase reference inhibitor IWR-2 (3E-06 M) which refers as control for maximum increase of Axin2. For analysis, the obtained data are normalized against the untreated solvent control and fitted for determination of the EC50 values using the Assay Explorer software (Accelrys).

T2 sequence (Q9H2K2 873-1166): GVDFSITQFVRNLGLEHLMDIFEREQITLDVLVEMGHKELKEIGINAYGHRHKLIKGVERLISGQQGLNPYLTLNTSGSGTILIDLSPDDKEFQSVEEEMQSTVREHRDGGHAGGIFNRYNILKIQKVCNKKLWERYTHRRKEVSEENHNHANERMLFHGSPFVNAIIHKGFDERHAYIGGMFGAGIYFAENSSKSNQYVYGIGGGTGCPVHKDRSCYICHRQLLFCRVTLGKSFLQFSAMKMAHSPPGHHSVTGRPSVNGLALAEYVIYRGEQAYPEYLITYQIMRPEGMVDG
T1 sequence (O95271 1023-1327): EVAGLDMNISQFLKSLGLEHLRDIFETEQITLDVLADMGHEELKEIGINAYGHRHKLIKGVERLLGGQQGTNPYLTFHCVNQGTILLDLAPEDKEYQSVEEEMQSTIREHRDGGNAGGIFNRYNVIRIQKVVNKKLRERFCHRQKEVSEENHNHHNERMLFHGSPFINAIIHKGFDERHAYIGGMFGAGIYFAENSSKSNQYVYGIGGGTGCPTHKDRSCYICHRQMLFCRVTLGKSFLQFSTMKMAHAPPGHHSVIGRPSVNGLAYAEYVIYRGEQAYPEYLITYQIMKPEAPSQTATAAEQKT

As usually defined, the IC50 is the concentration at which inhibition is half-maximal. Read a low IC50 as greater potency. Consider `CC(C)(C)c1ccc(-c2cn3nc(CF)cc3c(=O)[nH]2)cc1` [Compound A64, 6-(4-tert-butyl-phenyl)-2-fluoromethyl-5H-pyrazolo[1,5-a]pyrazin-4-one], for which the IC50 is under 300 nM in experiment [1] and 300 to 3000 nM in experiment [2]. Besides, in the experiment with tankyrase 1/2, the EC50 lay within 300 to 3000 nM.
For `O=c1[nH]c(-c2ccc(-c3cnn(CCN4CCCC4)c3)cc2)cn2cccc12` [Compound A27, 3-{4-[1-(2-pyrrolidin-1-yl-ethyl)-1H-pyrazol-4-yl]-phenyl}-2H-pyrrolo[1,2-a]pyrazin-1-one], the IC50 in experiment [1] and in experiment [2] was under 300 nM throughout. Moreover, the EC50 in the experiment with tankyrase 1/2 was 300 to 3000 nM.
For the compound `COCCn1cc(-c2ccc(-c3cn4cccc4c(=O)[nH]3)cc2)cn1` [Compound A26, 3-{4-[1-(2-methoxy-ethyl)-1H-pyrazol-4-yl]-phenyl}-2H-pyrrolo[1,2-a]pyrazin-1-one], the IC50 in experiment [1] and in experiment [2] was under 300 nM each time. The EC50 in the experiment with tankyrase 1/2 is 300 to 3000 nM.
Regarding `CC(C)(O)c1ccc(-c2cn3cc(C#N)cc3c(=O)[nH]2)cc1` [Compound A62, 3-[4-(1-hydroxy-1-methyl-ethyl)-phenyl]-1-oxo-1,2-dihydro-pyrrolo[1,2-a]pyrazine-7-carbonitrile], the EC50 in the experiment on tankyrase 1/2 lay in the range of 3000 to 50000 nM.
With `Cc1cc2c(=O)[nH]c(-c3ccc(-c4cnn(C)c4)cc3)cn2c1` [Compound A91], the IC50 in experiment [1] was under 300 nM; in experiment [2], 300 to 3000 nM. Besides, in the experiment with tankyrase 1/2, the EC50 lay in the range of 300 to 3000 nM.
As to `O=c1[nH]c(-c2ccc(C3CCNCC3)cc2)cn2cc(F)cc12` [Compound A77, 7-fluoro-3-(4-piperidin-4-yl-phenyl)-2H-pyrrolo[1,2-a]pyrazin-1-one], the IC50 is under 300 nM in experiment [1] and 300 to 3000 nM in experiment [2]. In the experiment on tankyrase 1/2, the EC50 was 300 to 3000 nM.
Consider `O=c1[nH]c(-c2ccc(N3CCCC3)cc2)cn2nc(CO)cc12` [Compound A19, 2-hydroxymethyl-6-(4-pyrrolidin-1-yl-phenyl)-5H-pyrazolo[1,5-a]pyrazin-4-one], for which the IC50 in experiment [1] was under 300 nM; in experiment [2], 300 to 3000 nM. The EC50 with tankyrase 1/2 fell in the range of 300 to 3000 nM.
Consider `Cc1cc2c(=O)[nH]c(-c3ccc(C(C)(C)C)cc3)cn2n1` [Compound A30, 6-(4-tert-butyl-phenyl)-2-methyl-5H-pyrazolo[1,5-a]pyrazin-4-one], for which the IC50 is under 300 nM in experiment [1] and 300 to 3000 nM in experiment [2]. In addition, the EC50 in the experiment on tankyrase 1/2 was under 300 nM.
As to `CC(C)(O)c1ccc(-c2cn3nc(C(F)(F)F)cc3c(=O)[nH]2)cc1` [Compound A69, 6-[4-(1-hydroxy-1-methyl-ethyl)phenyl]-2-trifluoromethyl-5H-pyrazolo[1,5-a]pyrazin-4-one], the IC50 in experiment [1] fell in the range of 300 to 3000 nM; in experiment [2] it was 3000 to 50000 nM. Further, in the experiment on tankyrase 1/2, the EC50 lay within 3000 to 50000 nM.
Regarding `COC(=O)c1ccc(-c2cn3cccc3c(=O)[nH]2)cc1` [Compound A28, 4-(1-oxo-1,2-dihydro-pyrrolo[1,2-a]pyrazin-3-yl)-benzoic acid methyl ester], the IC50 in experiment [1] is under 300 nM; in experiment [2], 300 to 3000 nM. Also, the EC50 in the experiment with tankyrase 1/2 lay within 300 to 3000 nM.
In the case of `O=c1[nH]c(-c2ccc(-c3cnn(CCO)c3)cc2)cn2cccc12` [Compound A32, 3-{4-[1-(2-hydroxy-ethyl)-1H-pyrazol-4-yl]-phenyl}-2H-pyrrolo[1,2-a]pyrazin-1-one], the IC50 in experiment [1] and in experiment [2] was under 300 nM each time. For the same compound, in the experiment with tankyrase 1/2, the EC50 lay in the range of 300 to 3000 nM.
In the case of `O=c1[nH]c(-c2ccc(C3(O)CCNCC3)cc2)cn2cccc12` [Compound A99], the IC50 in experiment [1] and in experiment [2] was 300 to 3000 nM throughout. In addition, in the experiment on tankyrase 1/2, the EC50 lay in the range of 3000 to 50000 nM.
`Cn1cc(-c2ccc(-c3cn4cc(F)cc4c(=O)[nH]3)cc2)cn1` [Compound A90]: the IC50 in experiment [1] is under 300 nM; in experiment [2] it was 300 to 3000 nM. The EC50 in the experiment with tankyrase 1/2 lay within 300 to 3000 nM.
Regarding `O=c1[nH]c(-c2ccc(N3CCCC3)cc2)cn2nccc12` [Compound A17, 6-(4-pyrrolidin-1-yl-phenyl)-5H-pyrazolo[1,5-a]pyrazin-4-one], the IC50 in experiment [1] and in experiment [2] was under 300 nM throughout. For the same compound, the EC50 in the experiment on tankyrase 1/2 lay within 300 to 3000 nM.
On to `Cc1ccc2c(=O)[nH]c(-c3ccc(Br)cc3)cn12` [Compound A94], for which the IC50 is under 300 nM in experiment [1] and 300 to 3000 nM in experiment [2]. Further, the EC50 with tankyrase 1/2 lay in the range of 300 to 3000 nM.
As to `O=c1[nH]c(-c2ccc(C3(O)CNC3)cc2)cn2cccc12` [Compound A86, 3-[4-(3-hydroxy-azetidin-3-yl)-phenyl]-2H-pyrrolo[1,2-a]pyrazin-1-one hydrochloride], the IC50 in experiment [1] and in experiment [2] was 300 to 3000 nM throughout. Also, the EC50 with tankyrase 1/2 was 3000 to 50000 nM.
Consider `CC(C)(C)c1ccc(-c2cn3nc(C(F)F)cc3c(=O)[nH]2)cc1` [Compound A66, 6-(4-tert-butyl-phenyl)-2-difluoromethyl-5H-pyrazolo[1,5-a]pyrazin-4-one], for which the IC50 was under 300 nM in experiment [1] and 300 to 3000 nM in experiment [2]. Also, the EC50 in the experiment on tankyrase 1/2 is 300 to 3000 nM.
For `C=C(CCCO)c1ccc(-c2cn3cc(F)cc3c(=O)[nH]2)cc1` (single isomer, unassigned) [Compound A74, 7-fluoro-3-[4-(4-hydroxy-1-methylene-butyl)-phenyl]-2H-pyrrolo[1,2-a]pyrazin-1-one], the IC50 in experiment [1] was under 300 nM; in experiment [2], 300 to 3000 nM. Moreover, the EC50 with tankyrase 1/2 fell in the range of 300 to 3000 nM.
Regarding `CN1CCC(c2ccc(-c3cn4cc(Cl)cc4c(=O)[nH]3)cc2)CC1` [Compound A82, 7-chloro-3-[4-(1-methyl-piperidin-4-yl)-phenyl]-2H-pyrrolo[1,2-a]pyrazin-1-one], the IC50 in experiment [1] was under 300 nM; in experiment [2] it was 300 to 3000 nM. The EC50 in the experiment with tankyrase 1/2 lay in the range of 300 to 3000 nM.
In the case of `Cc1cc2c(=O)[nH]c(-c3ccc(OC(F)(F)F)cc3)cn2n1` [Compound A34, 2-methyl-6-(4-trifluoromethoxy-phenyl)-5H-pyrazolo[1,5-a]pyrazin-4-one], the figures for the IC50 in experiment [1] and in experiment [2] were under 300 nM and 300 to 3000 nM, respectively. Further, the EC50 with tankyrase 1/2 was 300 to 3000 nM.
In the case of `O=c1[nH]c(-c2ccc(C3CCNCC3)cc2)cn2cc(Cl)cc12` [Compound A78, 7-Chloro-3-(4-piperidin-4-yl-phenyl)-2H-pyrrolo[1,2-a]pyrazin-1-one], the EC50 in the experiment on tankyrase 1/2 was in the range of 300 to 3000 nM.
